Measurements from PubChem BioAssay AID1259411 (Chemical Carcinogenesis Research Information System (CCRIS), 2018).
Calls of active or inactive are those of the source. The rule behind the calls is not given here.

Tested on: rodent carcinogenicity bioassays, tumor incidence
Test: CCRIS carcinogenicity studies
Conditions: Dose: 0, Dose: 0
Procedure, shortened: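 Archive of carcinogenicity, mutagenicity, tumor promotion and tumor inhibition results drawn from journals, NCI reports and other sources, expert-reviewed; covers 1985-2011 and is no longer updated.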

O=C1CCCO1
carcinogen call (Species: MOUSE, Strain/Sex: B6C3F1/FEMALE, Route: GAVAGE, 262, 525 MG/KG IN CORN OIL 5 D/WK FOR 103 WK (STUDY DURATION: 2 YR), 262, 525 MG/KG IN CORN OIL 5 D/WK FOR 103 WK (STUDY DURATION: 2 YR)): inactive; negative
carcinogen call (Species: MOUSE, Strain/Sex: B6C3F1/FEMALE, Route: GAVAGE, 262, 525 MG/KG IN CORN OIL 5 D/WK FOR 103 WK (STUDY DURATION: 105 WK), 262, 525 MG/KG IN CORN OIL 5 D/WK FOR 103 WK (STUDY DURATION: 105 WK), Tumor Site: Type of Lesion: ADRENAL MEDULLA: BENIGN OR MALIGNANT PHEOCHROMOCYTOMA): equivocal
carcinogen call (Species: RAT, Strain/Sex: F344/FEMALE, Route: GAVAGE, 225, 450 MG/KG IN CORN OIL 5 D/WK FOR 103 WK (STUDY DURATION: 2 YR), 225, 450 MG/KG IN CORN OIL 5 D/WK FOR 103 WK (STUDY DURATION: 2 YR)): inactive; negative
carcinogen call (Species: RAT, Strain/Sex: F344/MALE, Route: GAVAGE, 112, 225 MG/KG IN CORN OIL 5 D/WK FOR 103 WK (STUDY DURATION: 2 YR), 112, 225 MG/KG IN CORN OIL 5 D/WK FOR 103 WK (STUDY DURATION: 2 YR)): inactive; negative

NC(=O)N/N=C/c1ccc([N+](=O)[O-])o1
carcinogen call (Species: MOUSE, Strain/Sex: B6C3F1/FEMALE, Route: ORAL, 150, 310 PPM IN DIET (STUDY DURATION: 2 YR), 150, 310 PPM IN DIET (STUDY DURATION: 2 YR), Tumor Site: Type of Lesion: OVARIES: GRANULOSA CELL TUMOR): active; positive
carcinogen call (Species: MOUSE, Strain/Sex: B6C3F1/FEMALE, Route: ORAL, 150, 310 PPM IN DIET FOR 103 WK (STUDY DURATION: 105 WK), 150, 310 PPM IN DIET FOR 103 WK (STUDY DURATION: 105 WK), Tumor Site: Type of Lesion: OVARY: GRANULOSA CELL TUMOR, OVARY: GRANULOSA CELL TUMOR OR LUTEOMA;OVARY: MIXED TUMOR,BENIGN, OVARY: TUBULAR CELL ADENO, Tumor Site: Type of Lesion: OVARY: GRANULOSA CELL TUMOR, OVARY: GRANULOSA CELL TUMOR OR LUTEOMA;OVARY: MIXED TUMOR,BENIGN, OVARY: TUBULAR CELL ADENO): active; positive
carcinogen call (Species: MOUSE, Strain/Sex: B6C3F1/MALE, Route: ORAL, 150, 310 PPM IN DIET (STUDY DURATION: 2 YR), 150, 310 PPM IN DIET (STUDY DURATION: 2 YR)): inactive; negative
carcinogen call (Species: MOUSE, Strain/Sex: B6C3F1/MALE, Route: ORAL, 150, 310 PPM IN DIET FOR 103 WK (STUDY DURATION: 105 WK), 150, 310 PPM IN DIET FOR 103 WK (STUDY DURATION: 105 WK)): inactive; negative
carcinogen call (Species: MOUSE, Strain/Sex: ICR/MALE, FEMALE, Route: SUBCUTANEOUS, 75 UG/G ONCE WITHIN 12 HR OF BIRTH AND ONCE ON DAYS 7,14 AND 21 OF AGE (STUDY DURATION: 32 WK), Tumor Site: Type of Lesion: LUNG: PAPILLARY ADENOMA): active; positive
carcinogen call (Species: MOUSE, Strain/Sex: ICR/MALE, FEMALE, Route: TRANSPLACENTAL, 75 UG/G ADMINISTERED SUBCUTANEOUSLY TO MOTHERS ON DAYS 13, 15 AND 17 OF GESTATION (STUDY DURATION: 33 WK)): inactive; negative
carcinogen call (Species: RAT, Strain/Sex: F344/FEMALE, Route: ORAL, 310, 620 PPM IN DIET FOR 103 WK (STUDY DURATION: 105 WK), 310, 620 PPM IN DIET FOR 103 WK (STUDY DURATION: 105 WK), Tumor Site: Type of Lesion: MAMMARY GLAND: FIBROADENOMA): active; positive
carcinogen call (Species: RAT, Strain/Sex: F344/MALE, Route: ORAL, 310, 620 PPM IN DIET FOR 103 WK (STUDY DURATION: 105 WK), 310, 620 PPM IN DIET FOR 103 WK (STUDY DURATION: 105 WK), Tumor Site: Type of Lesion: SEBACEOUS GLAND: ADENOMA, SKIN: TRICHOEPITHELIOMA, TUNICA VAGINALIS: MESOTHELIOMA, PREPUTIAL GLAND: ADENOMA, CARCINOMA, Tumor Site: Type of Lesion: SEBACEOUS GLAND: ADENOMA, SKIN: TRICHOEPITHELIOMA, TUNICA VAGINALIS: MESOTHELIOMA, PREPUTIAL GLAND: ADENOMA, CARCINOMA): equivocal
carcinogen call (Species: RAT, Strain/Sex: F344 INBRED/FEMALE, Route: ORAL, 310, 620 PPM IN DIET (STUDY DURATION: 2 YR), 310, 620 PPM IN DIET (STUDY DURATION: 2 YR), Tumor Site: Type of Lesion: MAMMARY GLAND: FIBROADENOMA): active; positive

N#CC(Br)Br
carcinogen call (Species: Mouse, Strain/Sex: B6C3F1/Female (50/group), Route: Oral, 50, 100, 200 mg/l in drinking water for 2 yr, 50, 100, 200 mg/l in drinking water for 2 yr, Tumor Site: Type of Lesion: Forestomach: squamous cell papilloma and squamous cell carcinoma combined (1/50, 0/50, 5/50, 14/50)): active; positive (ntp describes as clear evidence)
carcinogen call (Species: Mouse, Strain/Sex: B6C3F1/Male (50/group), Route: Oral, 50, 100, 200 mg/l in drinking water for 2 yr, 50, 100, 200 mg/l in drinking water for 2 yr, Tumor Site: Type of Lesion: Forestomach: squamous cell papilloma and squamous cell carcinoma combined (0/50, 1/50, 0/50, 5/50). Liver: hepatoblastom): active; positive (ntp describes as clear evidence)
carcinogen call (Species: Rat, Strain/Sex: F344/N / Female (50/group), Route: Oral, 50, 100, 200 mg/l in drinking water for 2 yr, 50, 100, 200 mg/l in drinking water for 2 yr, Tumor Site: Type of Lesion: Oral Cavity (oral mucosa or tongue): squamous cell papilloma (1/50, 0/50, 4/50, 0/50). Skin: squamous cell papilloma, ke): active; positive (ntp describes as some evidence)
carcinogen call (Species: Rat, Strain/Sex: F344/N / Male (50/group), Route: Oral, 50, 100, 200 mg/l in drinking water for 2 yr, 50, 100, 200 mg/l in drinking water for 2 yr, Tumor Site: Type of Lesion: Oral Cavity (oral mucosa or tongue): squamous cell papilloma and carcinoma combined (0/50, 0/50, 2/50, 5/50) (Statistica): active; positive (ntp describes as clear evidence)

O=C(O)CCCCCCCCC(=O)O
carcinogen call (Species: RABBIT, Strain/Sex: NEW ZEALAND/FEMALE, Route: ORAL, 750, 1000 MG/KG/BW IN DIET FOR 6 MO (STUDY DURATION: 181 D), 750, 1000 MG/KG/BW IN DIET FOR 6 MO (STUDY DURATION: 181 D)): inactive; negative
carcinogen call (Species: RABBIT, Strain/Sex: NEW ZEALAND/MALE, Route: ORAL, 750, 1000 MG/KG/BW IN DIET FOR 6 MO (STUDY DURATION: 181 D), 750, 1000 MG/KG/BW IN DIET FOR 6 MO (STUDY DURATION: 181 D)): inactive; negative
carcinogen call (Species: RAT, Strain/Sex: WISTAR/FEMALE, Route: ORAL, 500, 1000 MG/KG/BW IN DIET FOR 6 MO (STUDY DURATION: 181 D), 500, 1000 MG/KG/BW IN DIET FOR 6 MO (STUDY DURATION: 181 D)): inactive; negative
carcinogen call (Species: RAT, Strain/Sex: WISTAR/MALE, Route: ORAL, 500, 1000 MG/KG/BW IN DIET FOR 6 MO (STUDY DURATION: 181 D), 500, 1000 MG/KG/BW IN DIET FOR 6 MO (STUDY DURATION: 181 D)): inactive; negative
